For this assay, the target named is Histamine H3 receptor (Rattus norvegicus) (UniProt Q9QYN8). Briefly: Inhibition of the specific binding of [3H](R)-alpha-methylhistamine ([3H]RMHA) to Histamine H3 receptor in rat brain membranes at 10e-8 M.

What is called inhibition is the percentage by which the read-out fell short of the control.

Chain of Histamine H3 receptor (Rattus norvegicus) (Q9QYN8 whole entry, looked up): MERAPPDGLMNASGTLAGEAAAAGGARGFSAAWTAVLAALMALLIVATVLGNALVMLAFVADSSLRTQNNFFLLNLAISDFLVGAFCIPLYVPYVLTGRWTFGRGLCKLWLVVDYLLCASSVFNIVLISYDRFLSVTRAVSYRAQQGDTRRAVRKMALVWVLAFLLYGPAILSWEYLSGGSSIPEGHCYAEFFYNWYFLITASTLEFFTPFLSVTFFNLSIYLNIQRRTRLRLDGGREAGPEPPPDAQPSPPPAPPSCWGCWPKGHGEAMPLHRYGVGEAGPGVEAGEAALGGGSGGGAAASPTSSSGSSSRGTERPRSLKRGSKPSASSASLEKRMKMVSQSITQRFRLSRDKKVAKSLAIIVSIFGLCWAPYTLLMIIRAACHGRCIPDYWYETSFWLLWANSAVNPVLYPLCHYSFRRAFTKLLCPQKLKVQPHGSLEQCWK

In turn, `C/C=C/CO` had an inhibition of 10%.

For the compound `OC/C=C\c1ccccc1`, the inhibition was 4.3%.

Turning to `OC/C=C/c1ccccc1`, the inhibition was 33.5%. As to `C/C=C\CO`, the inhibition was 3.7%. Under `O=C(O)C1C[C@@H]1c1c[nH]cn1` (single isomer, unassigned) stands 11.6%.
